# Assay results published in patent US20260125686A1, “COMPOSITIONS AND METHODS FOR MODULATION OF CFTR” (Cystic Fibrosis Foundation, priority 2022, published 2026).
# Biological target: Exon 22 truncated CFTR (Homo sapiens, UniProt P13569)
# Assay: Western blot of de-glycosylated Exon 22 truncated CFTR protein in 16HBEge-W1282X cells
# Format: cell-based
# Set-up: contain the first 1239 amino acids of a WT CFTR; endogenous in cells
# Conditions: PNGase F treated
# Method: Western blot analyses. Western blot analyses were performed as described previously, except the loading control, Na+/K+-ATPase, was detected with an antibody from Santa Cruz Biotechnology (sc-48345). 2.8.1.
# Exon 22 truncated CFTR protein expression was assayed using Western blotting, as depicted in FIG. 14. 16HBEge-W1282X cells were treated with exemplary ASO(s) alone or in combination (e.g., SD10; SD10 and SA08), in the presence of drug vehicle or correctors VX-445/661. Prior to electrophoresis and Western blotting, 16HBEge-W1282X cell extracts were treated with PNGase F to remove glycosylation. cDNA of four CFTR variants were transiently transfected in HEK293 cells, including WT CFTR (1480 aa), DelEx23 CFTR (1428 aa), W1282X CFTR (1281 aa), and Ex22 truncated CFTR (1248 aa). HEK293 cell extracts from these transfections were also treated with PNGase F and used as controls for Western blot. As depicted in FIG. 14, the α-CFTR UNC596 antibody (raised against epitope: 1204-1211 aa in Ex22) recognizes the deglycosylated Exon 22 truncated CFTR protein as one band at about 130 kDa.
# Exon 22 truncated CFTR, sequence (P13569 with tags, fused parts or gaps): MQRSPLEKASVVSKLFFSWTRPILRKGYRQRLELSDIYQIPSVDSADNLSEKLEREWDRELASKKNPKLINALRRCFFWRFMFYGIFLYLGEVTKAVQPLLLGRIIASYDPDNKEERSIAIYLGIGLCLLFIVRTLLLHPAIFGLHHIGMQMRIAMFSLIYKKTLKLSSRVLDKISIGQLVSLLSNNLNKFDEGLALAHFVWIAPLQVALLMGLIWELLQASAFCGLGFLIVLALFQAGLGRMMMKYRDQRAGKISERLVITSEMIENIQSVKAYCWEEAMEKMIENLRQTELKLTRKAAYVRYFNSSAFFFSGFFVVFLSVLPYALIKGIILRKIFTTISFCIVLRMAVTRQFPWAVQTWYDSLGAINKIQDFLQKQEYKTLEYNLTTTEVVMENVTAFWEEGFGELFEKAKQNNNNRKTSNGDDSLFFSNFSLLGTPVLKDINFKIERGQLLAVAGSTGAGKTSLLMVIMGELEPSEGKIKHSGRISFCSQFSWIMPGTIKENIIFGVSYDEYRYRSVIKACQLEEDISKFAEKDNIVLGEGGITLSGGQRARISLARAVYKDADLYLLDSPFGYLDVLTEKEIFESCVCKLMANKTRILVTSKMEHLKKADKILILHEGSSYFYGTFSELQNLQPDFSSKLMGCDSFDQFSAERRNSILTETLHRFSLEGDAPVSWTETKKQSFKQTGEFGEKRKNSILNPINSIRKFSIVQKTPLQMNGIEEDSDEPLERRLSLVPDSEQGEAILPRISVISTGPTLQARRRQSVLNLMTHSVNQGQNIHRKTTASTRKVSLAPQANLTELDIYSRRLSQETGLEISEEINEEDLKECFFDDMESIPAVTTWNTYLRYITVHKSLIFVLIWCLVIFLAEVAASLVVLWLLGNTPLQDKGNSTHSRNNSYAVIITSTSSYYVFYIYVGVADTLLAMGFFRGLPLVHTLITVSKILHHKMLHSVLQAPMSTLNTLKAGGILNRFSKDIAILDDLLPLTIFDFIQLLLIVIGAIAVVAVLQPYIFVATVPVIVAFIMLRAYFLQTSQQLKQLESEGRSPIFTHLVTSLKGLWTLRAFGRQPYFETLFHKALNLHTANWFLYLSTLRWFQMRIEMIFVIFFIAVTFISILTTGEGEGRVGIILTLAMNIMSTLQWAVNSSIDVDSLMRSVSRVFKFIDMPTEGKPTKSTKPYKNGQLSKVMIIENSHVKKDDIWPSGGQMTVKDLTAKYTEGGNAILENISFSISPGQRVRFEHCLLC
substance,measurement,value
"aaagcaagcagtgttcaaatct (antisense AAAGCAAGCAGTGTTCAAATCT; all 2'-MOE, all phosphorothioate, methylation of C not given here) [SD10, PS backbone, 2′-MOE]",expression of Exon 22 truncated CFTR protein,increased
